Measured values from paper PMC11876007, “Design and Synthesis of Hydroxamate-Based Matrix Metalloproteinase-2 Inhibitors for Anti-Photoaging” (Journal of Microbiology and Biotechnology, 2025).
Values joined by “and” are separate entries in the source; they are usually repeats but may differ in a detail not shown here. Equal entries are not always repeated. “Also recorded” adds a separate entry of the source. One block for each compound: values may come before it.

Key:
MMP-1 = molecular target: T1, MMP-1 (Homo sapiens, UniProt P03956); assay: In vitro MMP-1 inhibition assay (Abcam kit ab139443); assay type: biochemical; conditions: for MMP-1 inhibition (in words): 500 nM, Fig. 3A
T1 construct: purchased Abcam ab139443
T1 sequence (P03956 100-269 limits assumed): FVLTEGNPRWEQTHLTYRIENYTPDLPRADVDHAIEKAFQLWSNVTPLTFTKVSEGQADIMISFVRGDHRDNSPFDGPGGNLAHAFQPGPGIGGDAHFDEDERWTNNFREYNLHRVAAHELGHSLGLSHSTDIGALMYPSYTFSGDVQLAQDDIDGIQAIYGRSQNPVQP
Procedure: (§1) Test inhibitors were incubated with MMP enzymes and assay buffer at 37 °C for 30 min. Enzyme reaction was initiated by adding substrate, and MMP activity was measured by monitoring optical density (OD) at 412 nm for 20 min at 1-min intervals. The residual activity (%) was calculated as: residual activity = (Vinhibitor/Vcontrol) × 100. The reaction velocity (V) in OD/min were determined by the slope of a line fit to the linear portion of the measured values.

MMP-9 = molecular target: T2, MMP-9 (Homo sapiens, UniProt P14780); assay: Zymogram assay, MMP-9 in HaCaT cell conditioned media; assay type: biochemical; conditions: keratinocyte-conditioned media; 50 nM developing phase and 500 nM 48 h, Fig. 4B and 4D
T2 construct: endogenous in cells; host or cells: HaCaT keratinocytes (conditioned medium)

NHF cells = assay: Gelatin degradation assay (fluorescent gelatin, NHF cells); assay type: cell-based, human; conditions: 1 μM, four days, fluorescent-gelatin-coated plates
Procedure: Gelatin digestion was assessed using the QCM™ Gelatin Invadopodia Assay (#ECM670) (Sigma-Aldrich, USA). Plates were first coated with poly-L-lysine, activated with glutaraldehyde, and then coated with fluorescein-labelled gelatin. NHF cells were seeded onto the fluorescent gelatin-coated plates and incubated for 4 days. After incubation, the cells were fixed with formaldehyde and stained with DAPI for normalization based on cell number. Fluorescent gelatin levels were measured by detecting fluorescent intensity at an excitation wavelength of 492 nm and an emission wavelength of 518 nm using a Bio Tek Synergy H1 fluorescence reader (Agilent Technologies, USA). The residual gelatin (RG) was calculated by subtracting the fluorescent value of the wells with seeded cells from the values of wells without cells. This was normalized using the DAPI fluorescence to account for cell numbers per well. Gelatin degradation (%) was determined as: Gelatin degradation = (RGinhibitor/RGcontrol) × 100.

MMP-2 = molecular target: T3, MMP-2 (Homo sapiens, UniProt P08253); assay: In vitro MMP-2 inhibition assay (Abcam kit ab139446); assay type: biochemical; conditions: for Selectivity of inhibition, MMP-2 over MMP-1 (in words): tested at 500 nM for MMP-1 and 50 nM for MMP-2; for IC50: apparent IC50, concentration-dependent inhibition, Fig. 2B; for MMP-2 inhibition (in words): 50 nM, Fig. 3A
T3 construct: purchased Abcam ab139446
Procedure: as §1

T2 sequence (P14780 94-707): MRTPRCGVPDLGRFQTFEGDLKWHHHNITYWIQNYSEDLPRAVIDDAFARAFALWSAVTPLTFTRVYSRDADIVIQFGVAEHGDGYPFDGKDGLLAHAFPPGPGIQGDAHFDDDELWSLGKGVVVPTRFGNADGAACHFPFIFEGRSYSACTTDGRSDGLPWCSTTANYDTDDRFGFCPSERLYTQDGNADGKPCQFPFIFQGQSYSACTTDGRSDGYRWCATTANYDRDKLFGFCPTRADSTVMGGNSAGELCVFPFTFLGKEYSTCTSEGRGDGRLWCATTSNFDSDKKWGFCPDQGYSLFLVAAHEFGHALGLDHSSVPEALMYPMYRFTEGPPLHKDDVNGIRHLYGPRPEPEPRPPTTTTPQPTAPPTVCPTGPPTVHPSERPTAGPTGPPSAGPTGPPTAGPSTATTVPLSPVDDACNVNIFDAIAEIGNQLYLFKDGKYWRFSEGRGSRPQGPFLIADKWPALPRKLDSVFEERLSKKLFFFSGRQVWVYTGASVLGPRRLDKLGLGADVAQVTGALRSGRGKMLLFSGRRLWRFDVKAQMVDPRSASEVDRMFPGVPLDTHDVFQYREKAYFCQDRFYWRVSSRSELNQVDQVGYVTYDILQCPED
T3 sequence (P08253 110-465 limits assumed): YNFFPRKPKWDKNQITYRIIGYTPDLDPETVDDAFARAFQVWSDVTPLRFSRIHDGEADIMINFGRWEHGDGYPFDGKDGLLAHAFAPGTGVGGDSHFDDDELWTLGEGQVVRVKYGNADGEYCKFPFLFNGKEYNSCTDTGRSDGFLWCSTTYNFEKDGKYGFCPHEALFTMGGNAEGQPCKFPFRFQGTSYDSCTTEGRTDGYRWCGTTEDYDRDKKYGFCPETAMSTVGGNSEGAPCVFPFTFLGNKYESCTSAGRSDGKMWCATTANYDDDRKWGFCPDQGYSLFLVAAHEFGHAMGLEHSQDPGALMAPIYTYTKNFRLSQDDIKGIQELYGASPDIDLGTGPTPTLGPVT

MMP-1 inhibition (in words) (MMP-1): maintained MMP-1 inhibition
SMILES: O=C(NO)C1CCCCN1S(=O)(=O)c1ccccc1 (centres unmarked) [Compound 1ac, N-hydroxy-1-(phenylsulfonyl)piperidine-2-carboxamide]

SMILES: O=C(NO)C1CCCCN1S(=O)(=O)c1ccc(-c2ccccc2)cc1 (centres unmarked) [Compound 1ad, 1-([1,1'-biphenyl]-4-ylsulfonyl)-N-hydroxypiperidine-2-carboxamide]
MMP-9 inhibition, zymogram (in words) (MMP-9): effectively inhibited both MMP-2 and MMP-9 | Gelatin degradation per cell (in words) (NHF cells): statistically significant reductions

SMILES: CCCCOc1ccc(S(=O)(=O)N2CCCCC2C(=O)NO)cc1 (centres unmarked) [Compound 1af, 1-((4-butoxyphenyl)sulfonyl)-N-hydroxypiperidine-2-carboxamide]
MMP-9 inhibition, zymogram (in words) (MMP-9): effectively inhibited both MMP-2 and MMP-9 | Gelatin degradation per cell (in words) (NHF cells): statistically significant reductions

Selectivity of inhibition, MMP-2 over MMP-1 (in words) (MMP-2): selective inhibition of MMP-2
SMILES: Cc1ccc(S(=O)(=O)N2CCCCC2C(=O)NO)cc1 (centres unmarked) [Compound 1aj, N-hydroxy-1-tosylpiperidine-2-carboxamide]

MMP-1 inhibition (in words) (MMP-1): weak MMP-1 inhibition | IC50 (MMP-1; apparent IC50, concentration-dependent inhibition, Fig. 2B): 188 nM | IC50 (MMP-2): 5.1 nM and < 10 nM | Selectivity of inhibition, MMP-2 over MMP-1 (in words) (MMP-2): selectively inhibited MMP-2 over MMP-1
SMILES: CC(C)C(NS(=O)(=O)c1ccc(-c2ccccc2)cc1)C(=O)NO (centres unmarked) [Compound 1b, 2-([1,1'-biphenyl]-4-sulfonamido)-N-hydroxy-3-methylbutanamide]

SMILES: CCCCOc1ccc(S(=O)(=O)NC(C(=O)NO)C(C)C)cc1 (centres unmarked) [Compound 1d, 2-((4-butoxyphenyl)sulfonamido)-N-hydroxy-3-methylbutanamide]
IC50 (MMP-2): 8.1 nM and < 10 nM | Selectivity of inhibition, MMP-2 over MMP-1 (in words) (MMP-2): selectively inhibited MMP-2 over MMP-1; also recorded: strong selectivity for MMP-2

SMILES: CCCCOc1ccc(S(=O)(=O)NC(CC(C)C)C(=O)NO)cc1 (centres unmarked) [Compound 1j, 2-((4-butoxyphenyl)sulfonamido)-N-hydroxy-4-methylpentanamide]
IC50 (MMP-2): 7.8 nM and < 10 nM | Selectivity of inhibition, MMP-2 over MMP-1 (in words) (MMP-2): selectively inhibited MMP-2 over MMP-1; also recorded: strong selectivity for MMP-2

MMP-2 inhibition (in words) (MMP-2): lower inhibitory activity against MMP-2
SMILES: O=C(NO)C(Cc1ccccc1)NS(=O)(=O)c1ccc(-c2ccccc2)cc1 (centres unmarked) [Compound 1n, 2-([1,1'-biphenyl]-4-sulfonamido)-N-hydroxy-3-phenylpropanamide]

SMILES: CCCCOc1ccc(S(=O)(=O)NC(Cc2ccccc2)C(=O)NO)cc1 (centres unmarked) [Compound 1p, 2-((4-butoxyphenyl)sulfonamido)-N-hydroxy-3-phenylpropanamide]
MMP-2 inhibition (in words) (MMP-2): lower inhibitory activity against MMP-2

MMP-1 inhibition (in words) (MMP-1): weaker MMP-1 inhibition | IC50 (MMP-2): 18.9 nM | Selectivity of inhibition, MMP-2 over MMP-1 (in words) (MMP-2): selectively inhibited MMP-2 over MMP-1
SMILES: O=C(NO)C1CCCN1S(=O)(=O)c1ccc(-c2ccccc2)cc1 (centres unmarked) [Compound 1t, 1-([1,1'-biphenyl]-4-ylsulfonyl)-N-hydroxypyrrolidine-2-carboxamide]

SMILES: CCCCOc1ccc(S(=O)(=O)N2CCCC2C(=O)NO)cc1 (centres unmarked) [Compound 1v, 1-((4-butoxyphenyl)sulfonyl)-N-hydroxypyrrolidine-2-carboxamide]
IC50 (MMP-2): 32.6 nM | Selectivity of inhibition, MMP-2 over MMP-1 (in words) (MMP-2): selectively inhibited MMP-2 over MMP-1

SMILES: CC(=NO)c1ccc(S(=O)(=O)N2CCCCC2C(=O)NO)cc1 (centres unmarked) [Compound 4an, N-hydroxy-1-((4-(1-(hydroxyimino)ethyl)phenyl)sulfonyl)piperidine-2-carboxamide]
MMP-9 inhibition, zymogram (in words) (MMP-9): effectively inhibited both MMP-2 and MMP-9 | Gelatin degradation per cell (in words) (NHF cells): statistically significant reductions
